Test results published in patent publication US9096591B2, “Tetracyclic compounds” (Medivation Technologies, Inc., priority 2007, dated 2015).

Columns and labels:
[1] = system: adrenergic receptors α1D, α2A, α2B; serotonin receptor 5-HT6; dopamine receptor D2L; experiment: Classification of compounds (Type 1-4) from receptor binding and neurite outgrowth
Text: Compounds of the invention that inhibit binding of a ligand to adrenergic receptors α1D, α2A, α2B and serotonin receptor 5-HT6 by at least about 80% as determined in a suitable assay such as the assays described herein can be classified as Type 1 compounds. […] In one variation, binding of a ligand to serotonin receptor 5-HT7 is at least about 80%. […] Weak inhibition of binding of a ligand to the histamine H1 receptor is permitted as agonists of this receptor have been implicated in stimulating memory as well as weight gain. In one variation, binding to histamine receptor H1 is inhibited by less than about 80%. […] Compounds that inhibit binding of a ligand to the dopamine D2L receptor by at least about 80% as determined in a suitable assay such as the assay described herein can be classified as Type 2 compounds.
In one variation, Type 1 compounds further inhibit binding of a ligand to dopamine receptor D2L by less than about 80% as determined in a suitable assay known in the art such as the assay described herein. […] In one variation, binding of a ligand to serotonin receptor 5-HT7, 5-HT2A and/or 5-HT2C is inhibited by at least about 80% as determined in a suitable assay such as the assays described herein. […] In one variation, binding of a ligand to histamine receptor H1 and/or H2 is inhibited by less than about 80% as determined by a suitable assay known in the art such as the assays described herein.
In one variation, biding to serotonin receptor 5-HT2A is inhibited by at least about 80% as determined in a suitable assay know in the art such as the assay described herein.

rat brain mitochondria [2] = experiment: Ca2+-induced swelling of mitochondria (MPT pore opening); format: biochemical, Wistar rats; details: rat brain mitochondria; for A540 increase in mitochondrial suspension after addition of 100 μM of compound: 100 μM compound; for IC50: read-out: IC50, Ca2+-induced (25-50 μM) swelling of brain mitochondria, Ca2+ 25-50 μM
Description: Rat liver and brain mitochondria were prepared from male Wistar rats. The rats were euthanized in a CO2 chamber followed by decapitation the procedure being in compliance with the Guidelines for Animal Experiments at IPAC RAS. […]
Brain mitochondria were isolated from the pooled forebrains of two rats. The modified method of Sims was used to isolate and purify brain mitochondria in a Percoll gradient. The brain was homogenized in “buffer A” (225 mM mannitol, 75 mM sucrose, 5 mM HEPES, 1 mM EGTA, pH 7.4 [KOH]) and centrifuged for 10 min at 1300 g. The supernatant was centrifuged for 10 min at 10000 g, and then the pellet was suspended in 15% Percoll and layered on a discontinuous gradient consisting of 40 and 23% Percoll, respectively, which was then centrifuged for 10 min at 30000 g without using brakes. The mitochondria were collected from the interface of the lower two layers and after resuspension in “buffer A”, the suspension was centrifuged at 16600 g for 10 min, then the pellet was resuspended in “buffer A”, BSA (10 mg/mL) was added to bind free fatty acids; and the suspensions was centrifuged again at 6300 g for 10 min. Following centrifugation the pelleted mitochondria were re-suspended in isolation medium without EGTA to achieve a protein concentration of 15-20 mg/ml.
Mitochondrial swelling caused by influx of solutes through open PT pores results in an increase in light transmission (i.e., a reduced turbidity). This turbidity change offers a convenient and frequently used assay of the MPT by measurement of absorbance in mitochondrial suspensions. In the present study, the MPT induced by Ca^2+ and inorganic phosphate (Ca/Pi) was monitored by absorbance changes at 540 nm in a cuvette in a Beckman DU 640 spectrophotometer in 1 ml of buffer A plus 0.8 μM rotenone, 5 mM succinate, 1 mM KH2PO4 and 0.5 mg or 0.2 mg protein of isolated liver or brain mitochondria, accordingly. Reaction was started by the addition of triggering agent (Ca^2+). Pre-treatment and reaction were performed at 30° C. Swelling rate was quantified as ΔA540/min/mg, calculated, in all cases, from a tangent to the steepest portion of the plot of A540 versus time.
Ca^2+-induced Swelling of mitochondria was used as the primary screening test for compounds influence on MPT pore opening. […] But the inhibition of swelling may be connected not only with direct inhibition of MPT pore opening but also with the impairment of respiratory function of mitochondria and with the compounds action on calcium transport into mitochondria. For the primary estimation of these possibilities the mitochondrial membrane potential and calcium retention capacity of mitochondria were measured. […] New synthesized compounds (except C-14 and C-43) alone induced an increase of brain mitochondria suspension turbidity. The mechanism of such effect needs additional investigations.

rat brain mitochondria [3] = experiment: Mitochondrial membrane potential (safranine test); format: biochemical, Wistar rats; details: suggested from membrane potential and calcium retention data (Table 15)
Description: The same experimental conditions were used for the assessment of alterations of the mitochondrial membrane potential, except that safranine was included in incubation medium at a final concentration of 10 mkM and succinate was added before the compounds of the invention. This concentration of safranine was determined before hand as the optimal compromise between signal/baseline ratio and interference of safranine itself with swelling induced by Ca/Pi (safranine tended to enhance Ca/Pi-induced swelling at concentrations above 20 mkM). Changes in the status of the mPT pore were assessed spectrophotometrically at 554 and 524 nm in a cuvette in a Beckman DU 640 spectrophotometer. A554-524 represents the characteristics of mitochondrial potential and A554-characteristics of mitochondrial swelling.

Row | SMILES | compound type (classification by receptor binding profile and neurite outgrowth) [1] | A540 increase in mitochondrial suspension after addition of 100 μM of compound (rat brain mitochondria [2]) | IC50 (rat brain mitochondria [2]) | impairment of mitochondrial respiratory functions accompanying inhibition of MPT (rat brain mitochondria [3])
1 | CN1CCc2c(c3cc(I)ccc3n2CCc2ccccc2F)C1 [Compound 89, 5-(2-fluorophenethyl)-2,3,4,5-tetrahydro-8-iodo-2-methyl-1H-pyrido[4,3-b]indole] | Type one |  |  | 
2 | CCOc1ccc(CCn2c3c(c4cc(C)ccc42)CN(C)CC3)cc1 [Compound 334, 5-[2-(4-Ethoxy-phenyl)-ethyl]-2,8-dimethyl-2,3,4,5-tetrahydro-1H-pyrido[4,3-b]indole] | Type one |  |  | 
3 | Cc1ccc(CCn2c3c(c4cc(Br)ccc42)CN(C)CC3)cn1 [Compound 487, 8-bromo-2-methyl-5-(2-(6-methylpyridin-3-yl)ethyl)-2,3,4,5-tetrahydro-1H-pyrido[4,3-b]indole] | Type one |  |  | 
4 | Cc1ccc2c(c1)c1c(n2CCc2nc(-c3ccccc3)cs2)CCN(C)C1 [Compound C1-5] |  | 30 rel.units | 18 ± 16 µM | impairment of mitochondrial respiratory functions
5 | COc1ccc2c(c1)c1c(n2CCc2nc(-c3ccccc3)cs2)CCN(C)C1 [Compound C1-6] |  | 1.5 rel.units | 12.7 ± 6.2 µM | 
6 | CN1CCc2c(c3cc(F)ccc3n2CCc2nc(-c3ccccc3)cs2)C1 [Compound C1-7] |  | >30 rel.units | 28 ± 6 µM | 
7 | CN1CCc2c(c3ccccc3n2CCc2noc(-c3ccccc3)n2)C1 [Compound C4-1] |  | 10 rel.units | 3.9 ± 1.6 µM | impairment of mitochondrial respiratory functions
8 | Cc1ccc2c(c1)c1c(n2CCc2noc(-c3ccccc3)n2)CCN(C)C1 [Compound C4-4] |  | 14 rel.units | 6.7 ± 1.2 µM | impairment of mitochondrial respiratory functions
9 | CN1CCc2c(c3cc(Cl)ccc3n2CCc2noc(-c3ccccc3)n2)C1 [Compound C4-6] |  | 28 rel.units | 6 ± 1.2 µM | impairment of mitochondrial respiratory functions
